The assay deals with T1, human Farnesoid X Receptor (FXR) ligand binding domain (GST-FXR LBD) (Homo sapiens, UniProt Q96RI1).
T1 construct: purchased Invitrogen
T1 sequence (Q96RI1 193-472 isoform Q96RI1-2): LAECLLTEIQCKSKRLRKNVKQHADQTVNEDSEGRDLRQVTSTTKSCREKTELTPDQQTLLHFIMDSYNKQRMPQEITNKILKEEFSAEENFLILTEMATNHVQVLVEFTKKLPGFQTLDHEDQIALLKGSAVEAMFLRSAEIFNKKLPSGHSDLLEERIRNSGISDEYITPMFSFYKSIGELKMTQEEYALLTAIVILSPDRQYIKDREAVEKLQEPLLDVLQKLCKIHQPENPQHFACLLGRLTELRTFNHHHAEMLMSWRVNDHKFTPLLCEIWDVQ
Briefly: Human GST-FXR LBD co-activator interaction assay (FXR HTRF assay). In kind it is biochemical. The note with it: ligand-dependent interaction of GST-FXR LBD with biotin-labeled SRC-1 peptide, response relative to GW4064, read-out: FXR coactivator interaction assay (HTRF). From the text: Human GST-FXR LBD Co-Activator Interaction Assay
The FXR HTRF assay is a biochemical assay measuring the interaction between FXR and a coactivator protein (SRC1). The ligand-induced interaction with a coactivator protein is a critical step in transcriptional activation by FXR. Thus, this is an assay designed to measure FXR agonist activity of the test compounds.
Recombinant human Farnesoid X Receptor (FXR) ligand binding domain (amino acids 193-472) fused to glutathione S-transferase (GST) purified protein (GST-FXR LBD) was purchased (Invitrogen). The ligand-dependent interaction between GST-FXR LBD and a peptide derived from Steroid Receptor Coactivator-1 (SRC-1) was monitored by Fluorescence Resonance Energy Transfer (FRET). […] Test compounds (in DMSO solution) and detection reagents (anti-GST-Cryptate labeled antibody and Streptavidin-XL665 conjugate; CisBio) were added in assay buffer containing 50 mM KF. Plates are incubated at room temperature in the dark for 2.5 hrs before reading on an Envision (PerkinElmer) at 665 nm and 590 nm. The HTRF assay results were calculated from the 665 nm/590 nm ratio (ratio=(A665 nm/A590 nm)×10^4) and expressed in Delta F %=(Ratiosample−Rationegative)/Rationegative×100.
A negative control (without Streptavidin-XL665) was run with each assay and represented the background fluorescence. A reference FXR agonist, (E)-3-(2-chloro-4-((3-(2,6-dichlorophenyl)-5-isopropylisoxazol-4-yl)methoxy)styryl)benzoic acid (Compound GW4064), was included in each experiment as positive control. The efficacy of each test compound was compared to that of GW4064. At each concentration, the relative activity of the test compound was expressed as Response %=(Rsample−RDMSO)/(Rpositive−RDMSO), where Rsample is the HTRF response (expressed in Delta F %) for the test compound, Rpositive is the maximal response for GW4064 at saturating concentrations, and RDMSO is the response for DMSO control. The EC50 values were calculated using GraphPad Prism (GraphPad Software) using non-linear regression curve fit (log(agonist) vs. response—variable slope (four parameters)).
As for `Cn1nc(C(=O)N(Cc2ccccc2)Cc2cccc(F)c2)c2c1-c1cc(Cl)ccc1OC2` [Compound 57, N-benzyl-8-chloro-N-[(3-fluorophenyl)methyl]-1-methyl-1H,4H-chromeno[4,3-c]pyrazole-3-carboxamide], the EC50 was found to be 509 nM.
With `Cn1nc(C(=O)N(CC(=O)NC2CCC2)Cc2ccccc2F)c2c1-c1cc(Cl)ccc1OC2` [Compound 19, 2-(1-{8-chloro-1-methyl-1H,4H-chromeno[4,3-c]pyrazol-3-yl}-N-[(2-fluorophenyl)methyl]formamido)-N-cyclobutylacetamide] the figure was 49 nM; with `Cn1nc(C(=O)N(CC(=O)NCC(O)C(F)(F)F)Cc2ccccc2F)c2c1-c1cc(Cl)ccc1OC2` (stereo not drawn) [Compound 44, 8-chloro-N-(2-fluorobenzyl)-1-methyl-N-(2-oxo-2-((3,3,3-trifluoro-2-hydroxypropyl)amino)ethyl)-1,4-dihydrochromeno[4,3-c]pyrazole-3-carboxamide], 8 nM.
In the case of `Cn1nc(C(=O)N(CC(=O)NCCF)Cc2ccccc2F)c2c1-c1cc(Cl)ccc1OC2` [Compound 11, 2-(1-{8-chloro-1-methyl-1H,4H-chromeno[4,3-c]pyrazol-3-yl}-N-[(2-fluorophenyl)methyl]formamido)-N-(2-fluoroethyl)acetamide] it was 13 nM; in that of `CC(C)NC(=O)CN(Cc1cc(F)cc(F)c1)C(=O)c1nn(C)c2c1COc1ccc(Cl)cc1-2` [Compound 24, 2-(1-{8-chloro-1-methyl-1H,4H-chromeno[4,3-c]pyrazol-3-yl}-N-[(3,5-difluorophenyl)methyl]formamido)-N-(propan-2-yl)acetamide], 78 nM.
In the case of `Cn1nc(C(=O)N(CC(=O)NCC2CC2)CC2CCCC2)c2c1-c1cc(Cl)ccc1OC2` [Compound 75, 2-(1-{8-chloro-1-methyl-1H,4H-chromeno[4,3-c]pyrazol-3-yl}-N-(cyclopentylmethyl)formamido)-N-(cyclopropylmethyl)acetamide] it was 87 nM; in that of `CC(C)NC(=O)CN(Cc1ccccc1F)C(=O)c1nn(C)c2c1COc1ccc(Cl)cc1-2` [Compound 29, 2-(1-{8-chloro-1-methyl-1H,4H-chromeno[4,3-c]pyrazol-3-yl}-N-[(2-fluorophenyl)methyl]formamido)-N-(propan-2-yl)acetamide], 197 nM; in that of `CC(C)C(=O)NCCN(Cc1ccccc1)C(=O)c1nn(C)c2c1COc1ccc(Cl)cc1-2` [Compound 73, N-[2-(N-benzyl-1-{8-chloro-1-methyl-1H,4H-chromeno[4,3-c]pyrazol-3-yl}formamido)ethyl]-2-methylpropanamide], 50 nM.
Regarding `CC(C)NC(=O)CN(Cc1cccc(F)c1F)C(=O)c1nn(C)c2c1COc1ccc(Cl)cc1-2` [Compound 42, 2-(1-{8-chloro-1-methyl-1H,4H-chromeno[4,3-c]pyrazol-3-yl}-N-[(2,3-difluorophenyl)methyl]formamido)-N-(propan-2-yl)acetamide], the EC50 is 631 nM.
With `Cn1nc(C(=O)N(CC(=O)NC2CC2)Cc2cccc(F)c2F)c2c1-c1cc(Cl)ccc1OC2` [Compound 22, 2-(1-{8-chloro-1-methyl-1H,4H-chromeno[4,3-c]pyrazol-3-yl}-N-[(2,3-difluorophenyl)methyl]formamido)-N-cyclopropylacetamide] the figure was 60 nM; with `C[C@@H](C(=O)NCC1CC1)N(Cc1ccccc1F)C(=O)c1nn(C)c2c1COc1ccc(Cl)cc1-2` [Compound 80, (2S)-2-(1-{8-chloro-1-methyl-1H,4H-chromeno[4,3-c]pyrazol-3-yl}-N-[(2-fluorophenyl)methyl]formamido)-N-(cyclopropylmethyl)propanamide], 61 nM; with `Cn1nc(C(=O)N(CC(=O)NC2CC2(F)F)Cc2cccc(F)c2)c2c1-c1cc(Cl)ccc1OC2` (stereo not drawn) [Compound 10, 2-(1-{8-chloro-1-methyl-1H,4H-chromeno[4,3-c]pyrazol-3-yl}-N-[(3-fluorophenyl)methyl]formamido)-N-(2,2-difluorocyclopropyl)acetamide], 21 nM.
As for `Cn1nc(C(=O)N(CC(=O)NCCF)Cc2cccc(F)c2F)c2c1-c1cc(Cl)ccc1OC2` [Compound 33, 2-(1-{8-chloro-1-methyl-1H,4H-chromeno[4,3-c]pyrazol-3-yl}-N-[(2,3-difluorophenyl)methyl]formamido)-N-(2-fluoroethyl)acetamide], the EC50 amounted to 62 nM.
In the case of `Cn1nc(C(=O)N(CC(=O)NCC(C)(C)O)Cc2ccccc2F)c2c1-c1cc(Cl)ccc1OC2` [Compound 46, 2-(1-{8-chloro-1-methyl-1H,4H-chromeno[4,3-c]pyrazol-3-yl}-N-[(2-fluorophenyl)methyl]formamido)-N-(2-hydroxy-2-methylpropyl)acetamide] it was 19 nM; in that of `CC(C)NC(=O)CN(Cc1cc(F)cc(F)c1)C(=O)c1nn(C)c2c1COc1ccc(Br)cc1-2` [Compound 13, 2-(1-{8-bromo-1-methyl-1H,4H-chromeno[4,3-c]pyrazol-3-yl}-N-[(3,5-difluorophenyl)methyl]formamido)-N-(propan-2-yl)acetamide], 34 nM; in that of `Cn1nc(C(=O)N(CC(=O)NC2CCS(=O)(=O)C2)Cc2ccccc2F)c2c1-c1cc(Cl)ccc1OC2` (stereo not drawn) [Compound 39, 8-chloro-N-(2-((1,1-dioxidotetrahydrothiophen-3-yl)amino)-2-oxoethyl)-N-(2-fluorobenzyl)-1-methyl-1,4-dihydrochromeno[4,3-c]pyrazole-3-carboxamide], 482 nM.
For `Cn1nc(C(=O)N(CC(=O)Nc2ccc(C(=O)N3CCOCC3)cc2)Cc2ccccc2F)c2c1-c1cc(Cl)ccc1OC2` [Compound 20, 2-(1-{8-chloro-1-methyl-1H,4H-chromeno[4,3-c]pyrazol-3-yl}-N-[(2-fluorophenyl)methyl]formamido)-N-[4-(morpholine-4-carbonyl)phenyl]acetamide], the EC50 was determined as 246 nM.
In the case of `Cn1nc(C(=O)N(CC(=O)NCC2CC2)CC2CCOCC2)c2c1-c1cc(Cl)ccc1OC2` [Compound 40, 2-(1-{8-chloro-1-methyl-1H,4H-chromeno[4,3-c]pyrazol-3-yl}-N-(oxan-4-ylmethyl)formamido)-N-(cyclopropylmethyl)acetamide] it was 608 nM.
For `Cn1nc(C(=O)N(CC(=O)NC2CC2)Cc2cccc(F)c2)c2c1-c1cc(Cl)ccc1OC2` [Compound 27, 2-(1-{8-chloro-1-methyl-1H,4H-chromeno[4,3-c]pyrazol-3-yl}-N-[(3-fluorophenyl)methyl]formamido)-N-cyclopropylacetamide], the EC50 turned out to be 61 nM.
In the case of `CCNC(=O)CN(Cc1ccccc1F)C(=O)c1nn(C)c2c1COc1ccc(Cl)cc1-2` [Compound 17, 2-(1-{8-chloro-1-methyl-1H,4H-chromeno[4,3-c]pyrazol-3-yl}-N-[(2-fluorophenyl)methyl]formamido)-N-ethylacetamide] it was 54 nM; in that of `CC(C)NC(=O)CN(Cc1cccc(F)c1)C(=O)c1nn(C)c2c1COc1ccc(Br)cc1-2` [Compound 28, 2-(1-{8-bromo-1-methyl-1H,4H-chromeno[4,3-c]pyrazol-3-yl}-N-[(3-fluorophenyl)methyl]formamido)-N-(propan-2-yl)acetamide], 36 nM.
In the case of `CC(C)S(=O)(=O)NCCN(Cc1ccccc1F)C(=O)c1nn(C)c2c1COc1ccc(Cl)cc1-2` [Compound 63, 8-chloro-N-[(2-fluorophenyl)methyl]-1-methyl-N-[2-(propane-2-sulfonamido)ethyl]-1H,4H-chromeno[4,3-c]pyrazole-3-carboxamide] it was 644 nM; in that of `Cn1nc(C(=O)N(CC(=O)NCC(C)(O)C(F)(F)F)Cc2ccccc2F)c2c1-c1cc(Cl)ccc1OC2` (stereo not drawn) [Compound 45, 2-(1-{8-chloro-1-methyl-1H,4H-chromeno[4,3-c]pyrazol-3-yl}-N-[(2-fluorophenyl)methyl]formamido)-N-(3,3,3-trifluoro-2-hydroxy-2-methylpropyl)acetamide], 33 nM.
With `CC(C)C(=O)NCCN(Cc1ccccc1)C(=O)c1nn(C)c2c1COc1ccc(Br)cc1-2` [Compound 68, N-[2-(N-benzyl-1-{8-bromo-1-methyl-1H,4H-chromeno[4,3-c]pyrazol-3-yl}formamido)ethyl]-2-methylpropanamide] the figure was 22 nM.

For the origin of these results see patent publication US10351576B2, “Fused tricyclic pyrazole derivatives useful for farnesoid X receptors” (NOVARTIS AG, priority 2015, dated 2019).
